Measurements reported in patent US10959955B1 (RHOSHAN PHARMACEUTICALS, INC., priority 2017, dated 2021).
≈ marks a conversion by molar mass, not a printed value.

Tests used:
[1] = cited from earlier work
[2] = test system: Thromboxane B2; details: in 5 minutes of post bolus injection; 5 ml of 100 mg/ml ASA injected in less than 2 minutes; cited from earlier work
[3] = physchem
Procedure: The batch volume was made up to 100 ml with addition of 70/30 TBA/water. […] 5 ml aliquots were placed in flint vials and lyophilized. Upon completion of lyophilization, the contents of the vial were reconstituted with 5 ml of Water for Injection.

[4] = Bulk solution stability of Example 3C at 25° C.; format: physicochemical
Procedure: All three solutions were filtered and 5 ml each placed in a Type I flint vials and lyophilized. […] The lyophilized cakes in all vials were shrunken and collapsed. […] Since lyophilization of the ASA-lysine solution was carried out at about −30° C., all water was removed by sublimation at this low temperature. It is not known whether degradation took place during the lyophilization or during the preparation of the bulk solution or combination of both. Therefore, we have investigated the bulk solution stability of example 3C at 25° C.

[5] = pH and appearance of bulk and reconstituted solutions of ASA co-lyophilized with bases in TBA/water; format: physicochemical; details: 20 mg/ml aspirin in 80% TBA/20 water
From the text: The pH of the solution was raised to 6.5 using 1N sodium hydroxide. Phase separation was observed, probably due to salting out of inorganic base from TBA/Water system. In the next trial, we first raised the pH of the solution to 5.0 using 1N sodium hydroxide, and then sodium phosphate, dibasic to raise the pH to 6.5. Sodium phosphate, dibasic was used for a better control of pH. Since we still observed phase separation it appears that inorganic bases or buffers may not be compatible with a 80% TBA/20% water system. We may require more water, for example, 70% TBA/30% water in the system to dissolve the alkalinizing agents.
The reconstituted solution pH was 4.71.
In the next trial, we investigated incorporation of […] to facilitate complete neutralization. […] Arginine was, then, slowly added to the slurry to neutralize aspirin. […] The apparent pH of the bulk solution was 6.49. 5 ml aliquots placed in flint vials and lyophilized. Upon completion of lyophilization, the content of vial was reconstituted with 5 ml of Water for Injection. […] The reconstituted solution pH was 4.8.
Based on the above studies, it was evident that larger amount of base is needed to neutralize ASA in the preferred solvent system. To incorporate more base in the bulk solution, we explored use of 60/40 TBA/water system as solvent for lyophilization. […] The apparent pH of the bulk solution was 6.31. […]

[6] = Reconstitution of ASA lyophile with various basifying agents; format: physicochemical; details: basifying agent diluents of examples 13 and 14, without polysorbate 80
Procedure: One aspect of this invention was to produce a stable lyophilized product and a solvent system with sufficient bulk solution stability to withstand an aseptic processing and lyophilization process. The lyophilized products we have manufactured in most of these studies were made with 80% TBA/20% to 60% TBA/40% water solvent system and the bulk solution for lyophilization stable for 24 hours with minimal degradation. We have achieved this goal. […] The reconstitution studies were done by reconstituting a 100 mg vial with 5 ml of solution containing a buffer or a basifying agent or a combination of both.

[7] = Tonicity and pH of reconstituted solutions of ASA; format: physicochemical
From the text: Since the aspirin product will be administered via an IV bolus route, tonicity of the final reconstituted solution is acritical factor to avoid pain at the injection site.

[8] = test system: platelet aggregation; details: following oral dosing; cited from earlier work
[9] = oral tablets; cited from earlier work
[10] = intravenous vs oral; cited from earlier work

Compound: CC(=O)Oc1ccccc1C(=O)O.NCCCCC(N)C(=O)O [aspirin lysine salt]
- shelf life ([1]; Bayer sterile dry powder product): one year
- Thromboxane B2 inhibited [2]: greater than 95%

Compound: NCCCC[C@H](N)C(=O)O [lysine]
- solubility ([3]; organic solvent or mixture): 2 mg/mL (≈ 13.7 mM)

Compound: o-acetylsalicylic acid [Aspirin]
- Area % of Salicylic Acid ([4]; 4 hours): about 9 Area %
- Area % of Salicylic Acid ([4]; Initial): about 3 Area %
- apparent pH of the bulk solution [5]: 2.9
- appearance of reconstituted solution [6]: did not show any haziness
- Osmolality (m.Osm/Kg) ([7]; 12 mg/mL Na2HPO4 and 27 mg/mL of Tris buffer with 0.05% Tween80, 10 mL, ASA 50 mg/mL): 717 m.Osm/Kg
- Osmolality (m.Osm/Kg) ([7]; 17.5 mg/mL Tris Buffer with 0.05% Tween80, 20 mL, ASA 25 mg/mL): 269 m.Osm/Kg
- Osmolality (m.Osm/Kg) ([7]; 20 mg/mL Na2HPO4 with 0.05% Tween80, 25 mL, ASA 20 mg/mL): 481 m.Osm/Kg
- Osmolality (m.Osm/Kg) ([7]; 30 mg/mL of lysine and 7.5 mg/mL of Tris buffer, 20 mL, ASA 25 mg/mL): 338 m.Osm/Kg
- Osmolality (m.Osm/Kg) ([7]; 34 mg/mL Tris Buffer with 0.05% Tween80, 10 mL, ASA 50 mg/mL): 549 m.Osm/Kg
- Osmolality (m.Osm/Kg) ([7]; 34 mg/mL Tris Buffer, 10 mL, ASA 50 mg/mL): 540 m.Osm/Kg
- Osmolality (m.Osm/Kg) ([7]; 40 mg/mL L-Lysine, 20 mL, ASA 25 mg/mL): 380 m.Osm/Kg
- Osmolality (m.Osm/Kg) ([7]; 40 mg/mL of L-Lysine with 0.05% Tween80, 20 mL, ASA 25 mg/mL): 388 m.Osm/Kg
- Osmolality (m.Osm/Kg) ([7]; 50 mg/mL Na2HPO4 with 0.05% Tween80, 10 mL, ASA 50 mg/mL): 1172 m.Osm/Kg
- Osmolality (m.Osm/Kg) ([7]; 68 mg/mL Tris Buffer with 0.05% Tween80, 10 mL, ASA 100 mg/mL): 1060 m.Osm/Kg
- Osmolality (m.Osm/Kg) ([7]; 68 mg/mL Tris Buffer with 0.05% Tween80, Aspirin API 1 g, 10 mL, ASA 100 mg/mL): 1036 m.Osm/Kg
- pH of the solution ([1]; aqueous aspirin solution): about 2.5
- time to 10% of potency loss ([1]; concentrated aqueous bulk solution): about 1.3 hours
- degradation rate ([1]; pH 2.5): about 2 % per day
- onset of inhibition of platelet aggregation [8]: approximately 40 minutes
- initial onset of pain relief [9]: about 30 minutes
- effectiveness of intravenously administered solution versus orally administered equal amount [10]: four times as high

Compound: tris(hydroxymethyl)aminomethane
- solubility ([3]; 70/30 TBA/water, neat free base without ASA): 5 mg/mL
